Patent US11447466B2, “Substituted indole compounds useful as inhibitors of TLR7/8/9” (BRISTOL-MYERS SQUIBB COMPANY, priority 2017, dated 2022)

Experiments:
Assay type in all cases: cell-based
[1] = molecular target: T1, human TLR9 (Homo sapiens, UniProt Q9NR96); experiment: TLR9 inhibition reporter assay (HEK-Blue SEAP reporter, ODN2006 stimulation); conditions: HEK-Blue cells overexpressing human TLR9, SEAP reporter, ODN2006 5 nM, 22 hour incubation
T1 construct: host or cells: HEK-Blue cells
T1 sequence (Q9NR96 26-1032): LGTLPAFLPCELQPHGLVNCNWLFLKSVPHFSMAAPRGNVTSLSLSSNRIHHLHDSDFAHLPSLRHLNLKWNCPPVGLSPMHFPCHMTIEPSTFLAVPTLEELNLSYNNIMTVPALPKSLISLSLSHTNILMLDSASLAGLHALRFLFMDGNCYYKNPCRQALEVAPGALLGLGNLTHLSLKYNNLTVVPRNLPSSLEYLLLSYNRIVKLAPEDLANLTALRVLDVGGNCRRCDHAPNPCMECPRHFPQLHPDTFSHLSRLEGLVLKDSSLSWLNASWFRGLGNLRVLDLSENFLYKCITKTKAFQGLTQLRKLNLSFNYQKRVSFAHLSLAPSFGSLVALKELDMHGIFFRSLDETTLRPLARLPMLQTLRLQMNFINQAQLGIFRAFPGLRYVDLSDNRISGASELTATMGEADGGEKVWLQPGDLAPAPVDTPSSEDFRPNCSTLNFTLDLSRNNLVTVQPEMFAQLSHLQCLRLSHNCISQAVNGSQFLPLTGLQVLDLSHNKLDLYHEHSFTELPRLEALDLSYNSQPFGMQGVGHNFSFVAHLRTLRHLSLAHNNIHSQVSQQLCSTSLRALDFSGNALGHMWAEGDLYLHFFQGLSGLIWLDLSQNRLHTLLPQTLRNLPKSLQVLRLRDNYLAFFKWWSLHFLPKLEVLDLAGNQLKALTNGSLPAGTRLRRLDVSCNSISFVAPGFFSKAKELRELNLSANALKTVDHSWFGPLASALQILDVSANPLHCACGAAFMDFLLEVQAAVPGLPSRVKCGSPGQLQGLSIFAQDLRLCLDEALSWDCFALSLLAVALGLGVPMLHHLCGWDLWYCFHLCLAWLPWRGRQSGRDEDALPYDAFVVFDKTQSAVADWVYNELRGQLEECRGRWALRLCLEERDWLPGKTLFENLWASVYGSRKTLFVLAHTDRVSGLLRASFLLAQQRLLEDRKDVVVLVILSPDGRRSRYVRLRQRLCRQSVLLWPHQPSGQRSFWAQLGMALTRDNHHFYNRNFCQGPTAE
In short: (§1)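 Compound treatment: 30 min, RT, 0.05 nM–50 μM final. Agonist: TLR7 gardiquimod 7.5 μM; TLR8 R848 15.9 μM; TLR9 ODN2006 5 nM. Incubation 22 h, 37 °C, 5% CO2. Readout SEAP, HEK-Blue Detection.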

[2] = molecular target: T2, human TLR8 (Homo sapiens, UniProt Q9NR97); experiment: TLR8 inhibition reporter assay (HEK-Blue SEAP reporter, R848 stimulation); conditions: HEK-Blue cells overexpressing human TLR8, SEAP reporter, R848 15.9 μM, 22 hour incubation
T2 construct: host or cells: HEK-Blue cells
T2 sequence (Q9NR97 27-1041): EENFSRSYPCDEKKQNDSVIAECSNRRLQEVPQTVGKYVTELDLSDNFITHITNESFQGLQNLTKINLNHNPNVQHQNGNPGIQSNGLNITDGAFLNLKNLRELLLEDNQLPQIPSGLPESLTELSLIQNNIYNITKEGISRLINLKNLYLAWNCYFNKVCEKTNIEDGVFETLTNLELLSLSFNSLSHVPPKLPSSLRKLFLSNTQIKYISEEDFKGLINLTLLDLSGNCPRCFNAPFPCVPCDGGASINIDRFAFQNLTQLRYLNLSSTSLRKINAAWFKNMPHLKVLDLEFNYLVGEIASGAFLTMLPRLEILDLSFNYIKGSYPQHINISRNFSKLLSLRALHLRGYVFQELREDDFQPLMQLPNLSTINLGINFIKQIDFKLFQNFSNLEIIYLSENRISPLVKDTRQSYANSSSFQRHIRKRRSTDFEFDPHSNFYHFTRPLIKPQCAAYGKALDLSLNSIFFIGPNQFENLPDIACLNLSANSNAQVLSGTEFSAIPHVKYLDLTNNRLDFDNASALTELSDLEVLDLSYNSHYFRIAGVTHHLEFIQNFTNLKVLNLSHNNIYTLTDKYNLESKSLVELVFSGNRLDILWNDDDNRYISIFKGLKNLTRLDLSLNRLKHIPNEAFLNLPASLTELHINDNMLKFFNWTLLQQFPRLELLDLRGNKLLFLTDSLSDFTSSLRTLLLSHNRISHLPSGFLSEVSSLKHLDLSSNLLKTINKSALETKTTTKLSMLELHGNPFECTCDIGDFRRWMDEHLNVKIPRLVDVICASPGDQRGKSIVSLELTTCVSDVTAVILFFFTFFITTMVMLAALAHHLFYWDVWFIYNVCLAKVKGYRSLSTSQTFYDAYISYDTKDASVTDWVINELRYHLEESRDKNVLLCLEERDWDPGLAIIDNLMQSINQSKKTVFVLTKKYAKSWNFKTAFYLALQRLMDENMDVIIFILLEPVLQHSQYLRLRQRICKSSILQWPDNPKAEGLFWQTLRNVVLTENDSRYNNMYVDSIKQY
In short: as §1

[3] = molecular target: T3, human TLR7 (Homo sapiens, UniProt Q9NYK1); experiment: TLR7 inhibition reporter assay (HEK-Blue SEAP reporter, gardiquimod stimulation); conditions: HEK-Blue cells overexpressing human TLR7, SEAP reporter, gardiquimod 7.5 μM, 22 hour incubation
T3 construct: host or cells: HEK-Blue cells
T3 sequence (Q9NYK1 27-1049): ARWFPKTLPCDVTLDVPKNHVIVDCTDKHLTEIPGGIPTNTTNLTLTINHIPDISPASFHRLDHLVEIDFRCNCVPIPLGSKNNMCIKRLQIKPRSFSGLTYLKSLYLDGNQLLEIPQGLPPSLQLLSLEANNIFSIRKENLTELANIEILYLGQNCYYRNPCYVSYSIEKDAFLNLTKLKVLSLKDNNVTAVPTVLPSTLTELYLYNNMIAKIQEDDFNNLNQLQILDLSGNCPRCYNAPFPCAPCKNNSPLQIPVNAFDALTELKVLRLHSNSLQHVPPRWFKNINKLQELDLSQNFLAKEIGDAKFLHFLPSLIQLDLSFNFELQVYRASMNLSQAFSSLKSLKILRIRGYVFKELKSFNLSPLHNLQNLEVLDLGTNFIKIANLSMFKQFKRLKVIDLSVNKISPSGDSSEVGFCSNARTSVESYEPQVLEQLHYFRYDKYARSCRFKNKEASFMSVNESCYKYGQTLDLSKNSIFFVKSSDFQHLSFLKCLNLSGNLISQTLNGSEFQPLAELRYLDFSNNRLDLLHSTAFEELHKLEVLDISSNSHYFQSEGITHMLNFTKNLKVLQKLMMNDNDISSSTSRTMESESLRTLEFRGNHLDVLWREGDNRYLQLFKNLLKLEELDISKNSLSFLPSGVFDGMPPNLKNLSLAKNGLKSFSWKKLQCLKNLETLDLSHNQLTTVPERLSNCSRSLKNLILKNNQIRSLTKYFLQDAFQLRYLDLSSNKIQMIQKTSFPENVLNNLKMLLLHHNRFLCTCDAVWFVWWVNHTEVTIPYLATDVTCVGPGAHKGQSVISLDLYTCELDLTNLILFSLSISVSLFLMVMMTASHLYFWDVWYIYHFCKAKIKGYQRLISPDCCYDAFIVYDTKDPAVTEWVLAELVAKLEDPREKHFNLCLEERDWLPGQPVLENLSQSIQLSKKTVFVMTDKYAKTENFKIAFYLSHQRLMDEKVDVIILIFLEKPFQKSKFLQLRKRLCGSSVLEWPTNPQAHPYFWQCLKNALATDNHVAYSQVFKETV
In short: as §1

Compound | IC50 [1] [nM] | IC50 [2] [nM] | IC50 [3] [nM]
Cc1cc(-c2[nH]c3ccc(C4CCN(CC(C)C)CC4)cc3c2C(C)C)cn(CC(C)C)c1=O [Example 112, 1-isobutyl-5-(5-(1-isobutylpiperidin-4-yl)-3-isopropyl-1H-indol-2-yl)-3-methylpyridin-2(1H)-one] | 2360 | 70.5 | 38.9
Cc1cc(-c2[nH]c3ccc(C4CCN(CC(C)C)CC4)cc3c2C(C)C)cn(Cc2ccccc2)c1=O [Example 113, 1-benzyl-5-(5-(1-isobutylpiperidin-4-yl)-3-isopropyl-1H-indol-2-yl)-3-methylpyridin-2(1H)-one] | 2190 | 70.7 | 26.4
CC(C)c1c(-c2ccc(=O)n(C)c2)[nH]c2ccc(C3CCN(CC(=O)N(C)C)CC3)cc12 [Example 114, 2-(4-(3-isopropyl-2-(1-methyl-6-oxo-1,6-dihydropyridin-3-yl)-1H-indol-5-yl)piperidin-1-yl)-N,N-dimethylacetamide] | 10400 | 43.6 | 42.9
Cc1nc(-c2[nH]c3ccc(C4CCN(CC(=O)N(C)C)CC4)cc3c2C(C)C)cn(C)c1=O [Example 115, 2-(4-(2-(4,6-dimethyl-5-oxo-4,5-dihydropyrazin-2-yl)-3-isopropyl-1H-indol-5-yl)piperidin-1-yl)-N,N-dimethylacetamide] | 6590 | 42.1 | 48
Cc1cc(-c2[nH]c3ccc(C4CCN(CC(=O)N(C)C)CC4)cc3c2C(C)C)nn(C)c1=O [Example 116, 2-(4-(2-(1,5-dimethyl-6-oxo-1,6-dihydropyridazin-3-yl)-3-isopropyl-1H-indol-5-yl)piperidin-1-yl)-N,N-dimethylacetamide] | 6100 | 23.8 | 29.6
CNC(=O)CN1CCC(c2ccc3[nH]c(-c4cc(C)c(=O)n(C)c4)c(C(C)C)c3c2)CC1 [Example 117, 2-(4-(2-(1,5-dimethyl-6-oxo-1,6-dihydropyridin-3-yl)-3-isopropyl-1H-indol-5-yl)piperidin-1-yl)-N-methylacetamide] | 14000 | 5.3 | 2
CNC(=O)CN1CCC(c2ccc3[nH]c(-c4cc(C)c(=O)n(C)n4)c(C(C)C)c3c2)CC1 [Example 118, 2-(4-(2-(1,5-dimethyl-6-oxo-1,6-dihydropyridazin-3-yl)-3-isopropyl-1H-indol-5-yl)piperidin-1-yl)-N-methylacetamide] | 9640 | 14.5 | 18.6
Cc1cc(-c2[nH]c3ccc(C4CCN(CC(=O)N5CC[C@H](O)C5)CC4)cc3c2C(C)C)cn(C)c1=O [Example 119, (S)-5-(5-(1-(2-(3-hydroxypyrrolidin-1-yl)-2-oxoethyl)piperidin-4-yl)-3-isopropyl-1H-indol-2-yl)-1,3-dimethylpyridin-2(1H)-one] | 1160 | 14.9 | 11.4
Cc1cc(-c2[nH]c3ccc(C4CCN(CC(=O)N5CC[C@@H](O)C5)CC4)cc3c2C(C)C)cn(C)c1=O [Example 120, (R)-5-(5-(1-(2-(3-hydroxypyrrolidin-1-yl)-2-oxoethyl)piperidin-4-yl)-3-isopropyl-1H-indol-2-yl)-1,3-dimethylpyridin-2(1H)-one] | 851 | 11.5 | 7.4
Cc1cc(-c2[nH]c3ccc(C4CCN(CC(=O)N5CCC(=O)N5)CC4)cc3c2C(C)C)cn(C)c1=O [Example 121, 5-(3-isopropyl-5-(1-(2-oxo-2-(3-oxopyrazolidin-1-yl)ethyl)piperidin-4-yl)-1H-indol-2-yl)-1,3-dimethylpyridin-2(1H)-one] | ≥ 50000 | 102 | 40.7
Cc1cc(-c2[nH]c3ccc(C4CCN(CC(=O)N5CCCC5)CC4)cc3c2C(C)C)cn(C)c1=O [Example 122, 5-(3-isopropyl-5-(1-(2-oxo-2-(pyrrolidin-1-yl)ethyl)piperidin-4-yl)-1H-indol-2-yl)-1,3-dimethylpyridin-2(1H)-one] | 14700 | 15.7 | 4.9
Cc1cc(-c2[nH]c3ccc(C4CCN([C@@H]5CCNC5=O)CC4)cc3c2C(C)C)cn(C)c1=O [Example 123, (R)-5-(3-isopropyl-5-(1-(2-oxopyrrolidin-3-yl)piperidin-4-yl)-1H-indol-2-yl)-1,3-dimethylpyridin-2(1H)-one] | 23800 | 8 | 7
Cc1cc(-c2[nH]c3ccc(C4CCN(CC(=O)NCC(C)(C)O)CC4)cc3c2C(C)C)cn(C)c1=O [Example 124, 2-(4-(2-(1,5-dimethyl-6-oxo-1,6-dihydropyridin-3-yl)-3-isopropyl-1H-indol-5-yl)piperidin-1-yl)-N-(2-hydroxy-2-methylpropyl)acetamide] | ≥ 50000 | 11.3 | 9.7
